ChEMBL document CHEMBL1255419, “Pharmacokinetic-pharmacodynamic assessment of faropenem in a lethal murine Bacillus anthracis inhalation postexposure prophylaxis model” (Antimicrob Agents Chemother, 2010)
Values after ≈ are worked out from the molar mass of the structure shown. Active and inactive are the calls of the source. No cut-off for these calls is given here.

How the values were obtained:
Bacillus anthracis [1] = experiment: microbe, parasite or virus in culture; assay type: functional
Bacillus anthracis [2] = experiment: microbe, parasite or virus in culture; assay type: functional; remark: listed apart in the source
Bacillus anthracis [3] = experiment: microbe, parasite or virus in culture; assay type: functional; remark: listed apart in the source
Bacillus anthracis [4] = experiment: microbe, parasite or virus in culture; assay type: functional; remark: listed apart in the source
Bacillus anthracis [5] = experiment: Antibacterial activity against Bacillus anthracis Ames infected in BALB/c mouse assessed as survival rate at 20 mg/kg, ip administered 24 hrs postinfection at 6 hrs interval for 14 days measured on day 27; assay type: functional; conditions: route intraperitoneal
Bacillus anthracis [6] = experiment: microbe, parasite or virus in culture; assay type: functional; remark: listed apart in the source
Bacillus anthracis [7] = experiment: f%TMIC in Bacillus anthracis Ames infected pharmacokinetic-pharmacodynamic model at 0.5 ug/ml; assay type: functional
Bacillus anthracis [8] = experiment: microbe, parasite or virus in culture; assay type: functional; remark: listed apart in the source
Bacillus anthracis [9] = experiment: f%TMIC in Bacillus anthracis Ames infected pharmacokinetic-pharmacodynamic model at 0.25 ug/ml; assay type: functional
[10] = f%TMIC in ip dosed Bacillus anthracis Ames infected BALB/c mouse model at ED50 administered 24 hrs postinfection at 4 hrs interval for 14 days measured on day 27; assay type: functional
Bacillus anthracis [11] = experiment: microbe, parasite or virus in culture; assay type: functional; remark: listed apart in the source
Bacillus anthracis [12] = experiment: Antibacterial activity against Bacillus anthracis Ames infected in BALB/c mouse assessed as survival rate at 10 mg/kg, ip administered 24 hrs postinfection at 6 hrs interval for 14 days measured on day 27; assay type: functional; conditions: route intraperitoneal
Bacillus anthracis [13] = experiment: microbe, parasite or virus in culture; assay type: functional; remark: listed apart in the source
Bacillus anthracis [14] = experiment: microbe, parasite or virus in culture; assay type: functional; remark: listed apart in the source
Bacillus anthracis [15] = experiment: microbe, parasite or virus in culture; assay type: functional; remark: listed apart in the source
[16] = Plasma protein binding in CD1 mouse at 5 ug/ml by ultrafiltration technique; assay type: ADME, cell-free; conditions: read-out: PPB (converted)
Homo sapiens [17] = organism: Homo sapiens; experiment: Plasma protein binding in human at 5 ug/ml by ultrafiltration technique; conditions: read-out: PPB (converted)
Bacillus anthracis [18] = experiment: microbe, parasite or virus in culture; assay type: functional; remark: listed apart in the source
Bacillus anthracis [19] = experiment: Antibacterial activity against Bacillus anthracis Ames infected in BALB/c mouse assessed as survival rate at 10 mg/kg, ip administered 24 hrs postinfection at 4 hrs interval for 14 days measured on day 27; assay type: functional; conditions: route intraperitoneal
Bacillus anthracis [20] = experiment: microbe, parasite or virus in culture; assay type: functional; remark: listed apart in the source
[21] = f%TMIC in ip dosed Bacillus anthracis Ames infected BALB/c mouse model at ED99 administered 24 hrs postinfection at 4 hrs interval for 14 days measured on day 27; assay type: functional
Bacillus anthracis [22] = experiment: microbe, parasite or virus in culture; assay type: functional; remark: listed apart in the source
Streptococcus pneumoniae [23] = experiment: Antibacterial activity against Streptococcus pneumoniae clinical isolates; assay type: functional
Bacillus anthracis [24] = experiment: microbe, parasite or virus in culture; assay type: functional; remark: listed apart in the source
Bacillus anthracis [25] = experiment: Antibacterial activity against Bacillus anthracis Ames infected in BALB/c mouse assessed as survival rate at 80 mg/kg, ip administered 24 hrs postinfection at 4 hrs interval for 14 days measured on day 27; assay type: functional; conditions: route intraperitoneal
Bacillus anthracis [26] = experiment: microbe, parasite or virus in culture; assay type: functional; remark: listed apart in the source
Bacillus anthracis [27] = experiment: microbe, parasite or virus in culture; assay type: functional; remark: listed apart in the source
Bacillus anthracis [28] = experiment: microbe, parasite or virus in culture; assay type: functional; remark: listed apart in the source
Streptococcus pneumoniae [29] = experiment: f%TMIC in Streptococcus pneumoniae infected pharmacokinetic-pharmacodynamic model; assay type: functional
Bacillus anthracis [30] = experiment: microbe, parasite or virus in culture; assay type: functional; remark: listed apart in the source
Bacillus anthracis [31] = experiment: microbe, parasite or virus in culture; assay type: functional; remark: listed apart in the source
Bacillus anthracis [32] = experiment: Antibacterial activity against Bacillus anthracis Ames infected in BALB/c mouse assessed as survival rate at 10 mg/kg, ip administered 24 hrs postinfection at 12 hrs interval for 14 days measured on day 27; assay type: functional; conditions: route intraperitoneal
Bacillus anthracis [33] = experiment: Antibacterial activity against Bacillus anthracis Ames infected in BALB/c mouse assessed as survival rate at 20 mg/kg, ip administered 24 hrs postinfection at 4 hrs interval for 14 days measured on day 27; assay type: functional; conditions: route intraperitoneal
Bacillus anthracis [34] = experiment: Antibacterial activity against Bacillus anthracis Ames infected in BALB/c mouse assessed as survival rate at 80 mg/kg, ip administered 24 hrs postinfection at 6 hrs interval for 14 days measured on day 27; assay type: functional; conditions: route intraperitoneal
Bacillus anthracis [35] = experiment: microbe, parasite or virus in culture; assay type: functional; remark: listed apart in the source
Bacillus anthracis [36] = experiment: microbe, parasite or virus in culture; assay type: functional; remark: listed apart in the source
[37] = Plasma protein binding in CD1 mouse at 1000 ug/ml by ultrafiltration technique; assay type: ADME, cell-free; conditions: read-out: PPB (converted)
Bacillus anthracis [38] = experiment: Antibacterial activity against beta-lactamase Bla1 and Bla2-producing Bacillus anthracis Sterne by broth microdilution method; assay type: functional
Bacillus anthracis [39] = experiment: Antibacterial activity against Bacillus anthracis Ames infected in BALB/c mouse assessed as survival rate at 20 mg/kg, ip administered 24 hrs postinfection at 12 hrs interval for 14 days measured on day 27; assay type: functional; conditions: route intraperitoneal
Bacillus anthracis [40] = experiment: f%TMIC in Bacillus anthracis Ames infected pharmacokinetic-pharmacodynamic model at 0.12 ug/ml; assay type: functional
Bacillus anthracis [41] = experiment: microbe, parasite or virus in culture; assay type: functional; remark: listed apart in the source
Bacillus anthracis [42] = experiment: Antibacterial activity against Bacillus anthracis Ames infected in BALB/c mouse assessed as survival rate at 40 mg/kg, ip administered 24 hrs postinfection at 4 hrs interval for 14 days measured on day 27; assay type: functional; conditions: route intraperitoneal
Bacillus anthracis [43] = experiment: microbe, parasite or virus in culture; assay type: functional; remark: listed apart in the source
Bacillus anthracis [44] = experiment: microbe, parasite or virus in culture; assay type: functional; remark: listed apart in the source
[45] = f%TMIC in ip dosed Bacillus anthracis Ames infected BALB/c mouse model at ED90 administered 24 hrs postinfection at 4 hrs interval for 14 days measured on day 27; assay type: functional
Bacillus anthracis [46] = experiment: Antibacterial activity against Bacillus anthracis Ames infected in BALB/c mouse assessed as survival rate at 40 mg/kg, ip administered 24 hrs postinfection at 12 hrs interval for 14 days measured on day 27; assay type: functional; conditions: route intraperitoneal
Bacillus anthracis [47] = experiment: microbe, parasite or virus in culture; assay type: functional; remark: listed apart in the source
Bacillus anthracis [48] = experiment: Antibacterial activity against Bacillus anthracis Ames infected in BALB/c mouse assessed as survival rate at 40 mg/kg, ip administered 24 hrs postinfection at 6 hrs interval for 14 days measured on day 27; assay type: functional; conditions: route intraperitoneal
[49] = f%TMIC in Bacillus anthracis Ames infected human model at 600 […], BID; assay type: functional
Bacillus anthracis [50] = experiment: microbe, parasite or virus in culture; assay type: functional; remark: listed apart in the source
Bacillus anthracis [51] = experiment: Antibacterial activity against Bacillus anthracis Ames infected in BALB/c mouse assessed as survival rate at 80 mg/kg, ip administered 24 hrs postinfection at 12 hrs interval for 14 days measured on day 27; assay type: functional; conditions: route intraperitoneal
Bacillus anthracis [52] = experiment: microbe, parasite or virus in culture; assay type: functional; remark: listed apart in the source
Bacillus anthracis [53] = experiment: Antibacterial activity against Bacillus anthracis Ames infected in BALB/c mouse assessed as decrease in bacterial load in lungs at 20 mg/kg, ip administered 24 hrs postinfection at 4 hrs interval for 14 days measured on day 27; assay type: functional, organism-based; design: dose 20 mg/kg
Homo sapiens [54] = organism: Homo sapiens; experiment: Plasma protein binding in human at 1000 ug/ml by ultrafiltration technique; conditions: read-out: PPB (converted)
Bacillus anthracis [55] = experiment: microbe, parasite or virus in culture; assay type: functional; remark: listed apart in the source

With `Cc1oc(=O)oc1COC(=O)C1=C([C@H]2CCCO2)S[C@@H]2[C@@H]([C@@H](C)O)C(=O)N12` [FAROPENEM MEDOXOMIL] the MIC (Bacillus anthracis [1]) was 0.12 µg/mL (≈ 0.302 µM), the MIC (Bacillus anthracis [2]) was ≤ 0.06 µg/mL and the MIC (Bacillus anthracis [3]) was 0.12 µg/mL (≈ 0.302 µM). For the same compound, the MIC (Bacillus anthracis [4]) was 0.12 µg/mL (≈ 0.302 µM), the survival at 20 mg/kg (Bacillus anthracis [5]) was 60% and the MIC (Bacillus anthracis [6]) was ≤ 0.06 µg/mL. The “fT>MIC” value (Bacillus anthracis [7]) was 32%, the MIC (Bacillus anthracis [8]) was 0.12 µg/mL (≈ 0.302 µM) and the “fT>MIC” value (Bacillus anthracis [9]) was 44%. For the same compound, the “fT>MIC” value [10] was 10.6%, the MIC (Bacillus anthracis [11]) was 0.12 µg/mL (≈ 0.302 µM) and the survival at 10 mg/kg (Bacillus anthracis [12]) was 30%. The MIC (Bacillus anthracis [13]) was 0.5 µg/mL (≈ 1.26 µM), the MIC (Bacillus anthracis [14]) was ≤ 0.06 µg/mL and the MIC (Bacillus anthracis [15]) was 0.12 µg/mL (≈ 0.302 µM). For the same compound, the fraction unbound at 5 ug/ml [16] was 0.15, the fraction unbound at 5 ug/ml (Homo sapiens [17]) was 0.1 and the MIC (Bacillus anthracis [18]) was 0.12 µg/mL (≈ 0.302 µM). The survival at 10 mg/kg (Bacillus anthracis [19]) was 77.8%, the MIC (Bacillus anthracis [20]) was 0.12 µg/mL (≈ 0.302 µM) and the “fT>MIC” value [21] was 16.4%. The MIC (Bacillus anthracis [22]) was > 64 µg/mL, the MIC (Streptococcus pneumoniae [23]) was 0.008 µg/mL (≈ 0.0201 µM) and the MIC (Bacillus anthracis [24]) was 0.12 µg/mL (≈ 0.302 µM). The survival at 80 mg/kg (Bacillus anthracis [25]) was 100%, the MIC (Bacillus anthracis [26]) was 0.12 µg/mL (≈ 0.302 µM) and the MIC (Bacillus anthracis [27]) was 0.12 µg/mL (≈ 0.302 µM). For the same compound, the MIC (Bacillus anthracis [28]) was ≤ 0.06 µg/mL, the “fT>MIC” value (Streptococcus pneumoniae [29]) was 13.9% and the MIC (Bacillus anthracis [30]) was 0.25 µg/mL (≈ 0.629 µM). For the same compound, the MIC (Bacillus anthracis [31]) was ≤ 0.06 µg/mL, the survival at 10 mg/kg (Bacillus anthracis [32]) was 0% and the survival at 20 mg/kg (Bacillus anthracis [33]) was 80%. It also gave a survival at 80 mg/kg (Bacillus anthracis [34]) of 90%, an MIC (Bacillus anthracis [35]) of 0.25 µg/mL (≈ 0.629 µM) and an MIC (Bacillus anthracis [36]) of 0.25 µg/mL (≈ 0.629 µM). The fraction unbound at 1000 ug/ml [37] was 0.82, the MIC (Bacillus anthracis [38]) was ≤ 0.06 µg/mL and the survival at 20 mg/kg (Bacillus anthracis [39]) was 10%. For the same compound, the “fT>MIC” value (Bacillus anthracis [40]) was 51%, the MIC (Bacillus anthracis [41]) was 1 µg/mL (≈ 2.52 µM) and the survival at 40 mg/kg (Bacillus anthracis [42]) was 80%. The MIC (Bacillus anthracis [43]) was 0.12 µg/mL (≈ 0.302 µM), the MIC (Bacillus anthracis [44]) was ≤ 0.06 µg/mL and the “fT>MIC” value [45] was 13.4%. For the same compound, the survival at 40 mg/kg (Bacillus anthracis [46]) was 20%, the MIC (Bacillus anthracis [47]) was ≤ 0.06 µg/mL and the survival at 40 mg/kg (Bacillus anthracis [48]) was 90%. For the same compound, the “fT>MIC” value [49] was 62%, the MIC (Bacillus anthracis [50]) was 0.25 µg/mL (≈ 0.629 µM) and the survival at 80 mg/kg (Bacillus anthracis [51]) was 22.2%. For the same compound, the MIC (Bacillus anthracis [52]) was ≤ 0.06 µg/mL, the inhibition (Bacillus anthracis [53]) was “Active” and the fraction unbound at 1000 ug/ml (Homo sapiens [54]) was 0.787. For the same compound, the MIC (Bacillus anthracis [55]) was 0.06 µg/mL (≈ 0.151 µM).
